This assay concerns RS4;11 cells. The experiment in a line: Inhibitory effect on proliferation of RS4;11 cells (CCK-8). It counts as cell-based, human. The conditions noted are these: Homo sapiens, RS4-11, 72 h. The essentials: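 RS4;11 cells were seeded at 1×10^5 cells/mL in RPMI with 5% FBS and incubated 24 h at 37° C, 5% CO2 before compound addition in duplicate. Inhibition was calculated against untreated and blank controls. IC50 came from a four-parameter fit of log concentration versus inhibition.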

In general, IC50 refers to the concentration needed to halve the response being measured. For the compound `CC1(C)CCC(CN2CCN(c3ccc(C(=O)NS(=O)(=O)c4ccc(NCC5CCOCC5)c([N+](=O)[O-])c4)c(Oc4cnc5[nH]ccc5c4)c3)CC2)=C(c2ccc(C(F)(F)F)cc2Cl)C1` [Compound 1-1, 4-(4-{[2-(2-chloro-4-trifluoromethylphenyl)-4,4-dimethylcyclohex-1-enyl]methyl}-piperazin-1-yl)-N-({3-nitro-4-[(tetrahydro-2H-pyran-4-ylmethyl)amino]phenyl}sulfonyl)-2-(1H-pyrrolo[2,3-b]pyridin-5-yloxy)-benzamide], the IC50 amounted to 2.3 nM.

(Values after patent US20250257064A1, “TRIFLUOROMETHYL-SUBSTITUTED SULFONAMIDE AS BCL-2-SELECTIVE INHIBITOR” (Chia Tai Tianqing Pharmaceutical Group Co., Ltd., priority 2018, published 2025).)
